These results are taken from PubChem BioAssay AID588780 (Sanford-Burnham Center for Chemical Genomics, 2011).

The source made the active and inactive calls.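 The calls were made as follows: active = compounds whose fitted half-maximal concentration in the cell-protection dose series is at or below a set limit; inactive = the rest.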 Bounds are passed on as bounds.

The subject of this test is H9c2 cardiomyocytes, 2-deoxyglucose stress, ATP luminescence, 2 h. Nature of the test: protection of cardiomyocytes from 2-deoxyglucose injury, dose response, cell-based, 2-deoxyglucose stress, uHTS hits (AID 588780).
A word on the IC50: it is the concentration that gives 50% inhibition. Regarding `CC(OC(=O)Cc1n[nH]c(=O)c2ccccc12)C(=O)Nc1cc(Cl)cc(Cl)c1` (stereo not given), the half-inhibitory concentration (IC50) is 22.7 µM.
The figure for `O=C(COc1cccc2c1CCNC2=O)Nc1cccc(F)c1` is 28 µM; for `c1ccc(-c2cn3c(n2)CCc2ccc4cccnc4c2-3)cc1` it is > 79 µM (inactive); for `O=C(CNC(=O)c1ccccc1F)N/N=C/c1cc(Br)ccc1OC(=O)/C=C/c1ccco1` it is > 79 µM (inactive).
In the case of `COc1cccc(-c2nnc(NC(=O)c3ccc(S(=O)(=O)N(CC(C)C)CC(C)C)cc3)o2)c1`, the IC50 is > 79 µM (inactive).
With `O=C(N/N=C/c1cn(-c2ccccc2)nc1-c1cccnc1)c1ccccc1`, the IC50 was 12.8 µM.
In the case of `O=C(CN1CCN(S(=O)(=O)c2cc(Cl)ccc2Cl)CC1)c1ccc(O)c(O)c1`, the IC50 is > 79 µM (inactive).
In the case of `COc1ccc2o/c(=N/NC(=O)c3cccs3)c(C(N)=O)cc2c1`, the IC50 was 16.3 µM.
For `CC(C)(C)NC(=O)COC(=O)c1c2c(nc3ccccc13)CCC2`, the IC50 was 15.1 µM.
Under `COc1cc(C(=O)NNC(=O)c2ccc3ccccc3n2)cc(OC)c1OC` stands > 79 µM (inactive).
The figure for `COc1ccc(NS(=O)(=O)c2ccc3ccccc3c2)c2ncccc12` is > 79 µM (inactive); for `CCN(CC(=O)Nc1c(F)cccc1F)C(=O)CCc1nc2ccccc2c(=O)[nH]1` it is > 79 µM (inactive); for `COc1cc(NC(=O)c2cc3nc(-c4ccccc4)cc(-c4ccccc4)n3n2)cc(OC)c1OC` it is > 79 µM (inactive).
Take `O=C(CCc1nc2ccccc2c(=O)[nH]1)Nc1nc(-c2cccs2)cs1`: the IC50 is > 79 µM (inactive).
With `O=c1[nH]c2ccccc2n1CCCN1CCC(n2c(=O)[nH]c3cc(Cl)ccc32)CC1`, the IC50 was > 79 µM (inactive).
The figure for `CC(C)CC(=O)Nc1ccc(C(=O)COC(=O)Cc2n[nH]c(=O)c3ccccc23)cc1` is > 79 µM (inactive); for `Clc1nc2sccn2c1/C=N/n1cnc2ccccc21` it is > 79 µM (inactive); for `O=C(CSc1ccc(-c2ccccn2)nn1)N1CCCc2ccccc21` it is > 79 µM (inactive).
Under `CN(C)S(=O)(=O)c1ccc(NC(=O)COC(=O)Cn2[nH]c(=O)c3ccccc3c2=O)cc1` stands 9.56 µM; under `CCn1c2ccccc2c2nc3cc(OC)c(OC)cc3nc21`, > 79 µM (inactive).
Take `CCOc1ccc(NC(=O)c2cc3c(C)nc4ccccc4c3o2)cc1`: the IC50 is 17.1 µM.
Under `NS(=O)(=O)c1ccc(CCNC(=O)c2ccc(C#CC3(O)CCCCC3)cc2)cc1` stands > 79 µM (inactive); under `O=c1[nH]nc(CNc2ccc(O)cc2)c2ccccc12`, > 79 µM (inactive); under `COc1ccc(CC(=O)NCC(=O)N/N=C/c2cc(Br)ccc2OC)cc1`, > 79 µM (inactive).
`Cc1ccc(NS(=O)(=O)c2cc(-c3n[nH]c(=O)c4ccccc34)ccc2C)cc1`: the IC50 was > 79 µM (inactive).
Regarding `COc1ccc(-c2ccc3c(c2)S(=O)(=O)c2cccc(C(=O)N4CCN(c5c(Cl)cncc5Cl)CC4)c2C3=O)cc1OC`, the IC50 is > 79 µM (inactive).
Take `COc1cc2c(cc1OC)C(COc1ccc3c(C)cc(=O)oc3c1)N(C(=O)c1ccco1)CC2` (stereo not given): the IC50 is 10.1 µM.
The figure for `O=c1c2ccccc2nc2c3ccccc3c(NCCO)nn12` is 45.5 µM (inactive); for `CCN(CC(=O)Nc1c(F)cccc1F)C(=O)Cc1n[nH]c(=O)c2ccccc12` it is > 79 µM (inactive).
Under `COc1cc(/C=C(\C#N)C(=O)Nc2ccccc2F)ccc1OCCN1CCOCC1` stands 25.9 µM.
Under `COc1ccc(C(C(=O)NC2CCCCC2)N(Cc2cccs2)C(=O)Cc2c[nH]c3ccccc23)cc1OC` (stereo not given) stands 12.5 µM; under `CC(C)C(=O)N1CCN(c2ccc(NC(=O)COc3ccccc3[N+](=O)[O-])cc2)CC1`, > 79 µM (inactive); under `COc1ccc(Cl)cc1NC(=O)CN(C)C(=O)Cn1[nH]c(=O)c2ccccc2c1=O`, > 79 µM (inactive).
As for `CCCn1c(=O)c(C(=O)Nc2ccccc2)c(O)c2ccccc21`, the IC50 was > 79 µM (inactive).
Under `O=C(CSc1nc2ccccc2c(=O)[nH]1)c1ccccc1` stands > 79 µM (inactive); under `Cc1ccc2sc(NNC(=O)c3ccc4c(c3)OCCO4)nc2c1C`, > 79 µM (inactive).
The figure for `O=C(Nc1nc(-c2cc(F)ccc2F)cs1)C1=NN(c2ccccc2)C(=O)CC1` is > 79 µM (inactive); for `Cc1c(C(=O)NCC2COc3ccccc3O2)oc2ccc(S(=O)(=O)N3CCOCC3)cc12` (stereo not given) it is > 79 µM (inactive); for `O=c1[nH]c(CSc2nnc(-c3cccnc3)n2C2CCCCC2)nc2ccccc12` it is > 79 µM (inactive).
As for `O=C(Nc1ccc2c(c1)[nH]c(=O)c1ccccc12)C(F)(F)F`, the IC50 is > 79 µM (inactive).
Consider `O=C(N/N=C/c1ccccn1)c1[nH]c2ccc([N+](=O)[O-])cc2c1-c1ccccc1`, for which the IC50 was 13.2 µM.
Under `Cc1ccc(S(=O)(=O)N(C)C)cc1NC(=O)COC(=O)Cc1n[nH]c(=O)c2ccccc12` stands > 79 µM (inactive); under `CCOC(=O)C1CCN(c2cc3c(cc2NC(=O)c2ccccc2Cl)n(C)c(=O)n3C)CC1`, 11.7 µM; under `O=C(COC(=O)Cn1[nH]c(=O)c2ccccc2c1=O)NNC(=O)c1ccccc1`, > 79 µM (inactive).
For the compound `CC(=O)c1ccc(-c2cnc3c(NC=O)cc(-c4ccc(C(=O)NC5CC5)cc4)cn23)cc1`, the IC50 was > 79 µM (inactive).
`COC(=O)c1ccc(OCC(=O)Nc2ccccc2C(=O)NC2CC2)cc1`: the half-inhibitory concentration (IC50) was 10.6 µM.
The figure for `COc1ccc(-c2cc3nc(C)cc(N4CCN(C(=O)c5ccoc5)CC4)n3n2)cc1` is 51.7 µM (inactive); for `COC(=O)c1cc2c(C)c(C)c3ccccn3c-2c1C(=O)OC` it is > 79 µM (inactive); for `COC(=O)c1[nH]c2c(c1C)C(=O)CC(c1cc(OC)ccc1OC)C2` (stereo not given) it is > 79 µM (inactive).
The figure for `O=c1cc(COc2ncnc3c(Cl)cc(Cl)cc23)nc2sccn12` is > 79 µM (inactive); for `COC(=O)c1cccc(S(=O)(=O)N(Cc2ccco2)Cc2cc3cc(OC)ccc3[nH]c2=O)c1` it is > 79 µM (inactive).
Consider `CC(=O)Oc1ccc(C(=O)OCC(=O)c2c(N)n(C)c(=O)n(C)c2=O)cc1OC(C)=O`, for which the IC50 was 31.8 µM (inactive).
Under `COc1ccc2[nH]c(=O)c(CN(Cc3ccco3)Cc3nnnn3Cc3ccccc3)cc2c1` stands > 79 µM (inactive); under `Oc1c(Br)cc(Br)cc1C=NCc1ccccc1`, > 79 µM (inactive); under `COc1cc2nc(Nc3ccc(F)cc3)nc(N)c2cc1OC`, 42.9 µM (inactive).
On to `COc1cc(OC)c(-c2nn3c(-c4ccco4)nnc3s2)cc1OC`, for which the IC50 was 6.54 µM.
Under `Cc1cc(N)n(-c2nc(-c3cccnc3)nc3ccccc23)n1` stands 19.8 µM; under `O=C(Cn1[nH]c(=O)c2ccccc2c1=O)N1CC=C(c2ccccc2)CC1`, 21 µM; under `O=C(C[C@@H]1C/C=C/CC[C@@H](Cc2ccc(F)cc2)C(=O)O[C@@H](c2ccccc2)CNC1=O)NCCO`, 15.1 µM.
For the compound `COc1ccc(C(C)=O)cc1COC(=O)Cc1n[nH]c(=O)c2ccccc12`, the IC50 was > 79 µM (inactive).
Under `COc1cc(OC)cc(C(=O)Nc2ccc(-c3nc4ccccc4o3)cc2)c1` stands > 79 µM (inactive); under `CC1(c2ccccc2)NC(=O)N(CC(=O)Nc2cccc(/C=C/c3ccccn3)c2)C1=O` (stereo not given), 19 µM; under `COCCNC(=O)COC(=O)c1ccc(OCC(=O)Nc2ccccc2OC)c(OC)c1`, 22.9 µM.
Consider `Cc1nc(N2CCN(c3ccccn3)CC2)c2c(C)c(C(=O)Nc3ccc(F)cc3)sc2n1`, for which the IC50 is > 79 µM (inactive).
With `COc1ccc(-c2cc(C(=O)N(C)Cc3ccc(OC)c(OC)c3OC)c3ccccc3n2)cc1OC`, the 50% inhibitory concentration (IC50) is 10.4 µM.
As for `CCOC(=O)c1c2c3c(cccc3n(C)c1=O)C(=O)c1ccccc1-2`, the IC50 is > 79 µM (inactive).
Turning to `CC(=O)c1ccc(-c2cnc3c(NC=O)cc(-c4cccc(C(=O)N(C)C)c4)cn23)cc1`, the IC50 was 14 µM.
Regarding `O=Cc1ccc(OCc2cccc(C(F)(F)F)c2)cc1O`, the 50% inhibitory concentration (IC50) was 28.1 µM.
Under `CCOc1ccc2[nH]c(=O)c(CN(CCO)C(c3nnnn3C3CCCCC3)C(C)C)cc2c1` (stereo not given) stands > 79 µM (inactive); under `COc1ccc(S(=O)(=O)N2CCOCC2)cc1NC(=O)c1cccc2c(=O)c(C)c(-c3ccccc3)oc12`, 18 µM; under `O=c1oc(-c2ccco2)nc2c1cnn2-c1ccccc1`, > 79 µM (inactive).
With `CCOc1ncccc1C(=O)Nc1cccc(-c2nc3cccnc3s2)c1`, the IC50 was > 79 µM (inactive).
As to `COc1cc(C(=O)Nc2ccc(NC(=O)c3cccc(Cl)c3)nc2)cc(OC)c1OC`, the IC50 was 13.8 µM.
The figure for `COc1ccc(N(Cc2cc3cc(OC)ccc3[nH]c2=O)C(=O)c2cccnc2)cc1` is > 79 µM (inactive); for `COc1ccc(NC(=O)N(CCCN(C)C)Cc2cc3cc(OC)ccc3[nH]c2=O)cc1` it is > 79 µM (inactive).
Take `O=C(CC(C(=O)c1ccccc1)c1ccccc1)c1ccccc1` (stereo not given): the half-inhibitory concentration (IC50) is 12.6 µM.
`Cc1ccc2[nH]c(=O)c(CN(Cc3ccco3)S(=O)(=O)c3c(C)ccc4nsnc34)cc2c1`: the IC50 is 29.7 µM.
The figure for `S=C(Nc1ccc(N2CCOCC2)cc1)Nc1ccc2nc(-c3ccco3)c(-c3ccco3)nc2c1` is > 79 µM (inactive); for `O=c1[nH]cnc2sc3c(c12)CCC3` it is > 79 µM (inactive); for `S=c1[nH]c2ccccc2c2ccccc12` it is > 79 µM (inactive).
For the compound `O=C(Nc1cccc(Cl)c1)c1nc[nH]c1C(=O)NCCCNC(=O)c1[nH]cnc1C(=O)Nc1cccc(Cl)c1`, the IC50 is > 79 µM (inactive).
Under `CN(CC(=O)Nc1c(Cl)cccc1Cl)C(=O)Cn1[nH]c(=O)c2ccccc2c1=O` stands > 79 µM (inactive); under `CCCc1cc2c(cc1NC(=O)c1ccc(Br)cc1)OCO2`, 29.3 µM.
For the compound `CCOc1ccc(CC(=O)Nc2c(C(N)=O)oc3ccc(Br)cc23)cc1OCC`, the IC50 was > 79 µM (inactive).
For `Cc1cc(NC(=O)COc2nnc(-c3ccccc3)c3ccccc23)no1`, the IC50 was > 79 µM (inactive).
